The results in this text go back to patent publication US11090312B2, “Methods of treating hypogonadism with transnasal testerosterone bio-adhesive gel formulations in male with allergic rhinitis, and methods for preventing an allergic rhinitis event” (Acerus Biopharma Inc., priority 2013, dated 2021).

Series [1] is described as follows: pKa assessment of testosterone. As to conditions: from molecular structure.
Series [2] in a line: Solubility of testosterone in water, solvents and oils. As to conditions: maximum.

In the case of `C[C@]12CC[C@H]3[C@@H](CCC4=CC(=O)CC[C@@]43C)[C@@H]1CC[C@@H]2O` [Testosterone, 17β-Hydroxyandrost-4-en-3-one], in series [1], the pKa result is on record as “no pKa value in the range 1-14”. Moreover, the “Solubility in castor oil pure” value in series [2] is recorded as no more than 3.6%.
